Data published in patent publication US12091653B2, “Strain of Glutamicibacter, originating from insects, capable of efficiently degrading bifenthrin” (Anhui Agricultural University, priority 2023, dated 2024).

System: E. grisescens larvae
Test: Toxicity testing of 2,4-di-tert-butylphenol in artificial food fed to E. grisescens larvae
Type: in vivo, Ectropis grisescens
Settings: 100 mg/L in sterile artificial food, 48 hours
Description: A stock solution of 2,4-di-tert-butylphenol (purchased from Beijing Solarbio Science & Technology Co., Ltd., HPLC≥99%) was prepared following the preparation method for bifenthrin stock solution. This stock solution was added to sterile artificial food at a final concentration of 100 mg/L. This food was used to feed 30 healthy 4-5 aged E. grisescens larvae. The control group was fed normal sterile artificial food.

## CC(C)(C)c1ccc(O)c(C(C)(C)C)c1 [2,4-di-tert-butylphenol]
  toxicity to E. grisescens larvae: little to no toxicity
Control food 93.33%
  survival rate of E. grisescens larvae: 94.45%
